{"source": "patent US20180317415A1", "about": "“NANOBIONIC LIGHT EMITTING PLANTS” (MASSACHUSETTS INSTITUTE OF TECHNOLOGY, priority 2015, published 2018)", "key": {"firefly luciferase": {"molecular_target": "firefly luciferase (Photinus pyralis, UniProt P08659)", "sequence (P08659 whole entry)": "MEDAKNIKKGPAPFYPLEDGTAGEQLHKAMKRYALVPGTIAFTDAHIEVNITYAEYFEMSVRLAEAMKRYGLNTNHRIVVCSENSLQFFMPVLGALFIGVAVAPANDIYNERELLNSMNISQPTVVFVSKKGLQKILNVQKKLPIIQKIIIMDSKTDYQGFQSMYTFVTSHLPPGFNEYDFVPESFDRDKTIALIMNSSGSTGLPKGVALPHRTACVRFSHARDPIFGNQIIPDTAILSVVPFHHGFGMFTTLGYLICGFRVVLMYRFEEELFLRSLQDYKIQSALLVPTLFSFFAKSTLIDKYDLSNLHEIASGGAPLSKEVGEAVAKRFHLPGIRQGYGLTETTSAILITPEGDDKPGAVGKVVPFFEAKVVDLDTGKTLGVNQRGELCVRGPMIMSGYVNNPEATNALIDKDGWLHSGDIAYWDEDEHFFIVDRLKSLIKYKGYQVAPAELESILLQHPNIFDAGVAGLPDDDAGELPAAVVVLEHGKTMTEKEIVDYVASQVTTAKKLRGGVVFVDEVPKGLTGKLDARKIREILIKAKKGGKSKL", "details": "strong inhibitor of the luciferase; read-out: IC50 as inhibitor of light production; cited from earlier work"}, "living watercress plant": {"tested_on": "living watercress plant", "experiment": "light emission in living watercress plant after LIN/PBIN infiltration of nanoparticles", "format": "in vivo, watercress (Nasturtium officinale)", "details": "1-2 hours compared to 30 minutes incubation of SNP-Luc (LIN) before free luciferin 0.1 mM", "experimental": "Leaf discs of spinach plants 3 week-olds were infiltrated with 30 mM HEPES buffer (pH 7.4) via PBIN at speed of 0.4 bar/s and cell membranes were stained with FM 464 fluorescent dye (red).\nSNP-Luc was infiltrated by LIN 1 h in advance, and PLGA-LH alone or PLGA-LH and CS-CoA were infused into a watercress plant by PBIN. […] To extend the illumination time, the third nanoparticle class, CS-CoA, was co-infiltrated with PLGA-LH by PBIN. […] In FIG. 3E, a and b represent concentration of SNP-Luc (μM) and concentration of PLGA-LH2 (mM), respectively. […] Maximum number of photons/sec was obtained from the first photo (analyzed by Image J). […]\nInfiltration of nanoparticles in living plants. […] The pressure was monitored by digital hydronic manometer (Dwyer instruments, IN, USA). […]\nEstimation of photon numbers from light emitting plants. The power of LED light was first measured at 12.70 cm away using a photo-detector (λ=530 nm, detector surface area=1 cm^2) (PM100, ThorLabs, NJ, USA). The number of photons incident on the photo-detector was determined using the measured power (10 nW) divided by the energy of a single photon at 530 nm, given by the equation below\nAn image of the LED light was taken at 68.58 cm of distance with 1/1000 s exposure to avoid saturation of pixels and converted into quantitative values using ImageJ (Mean value=0.016)."}, "[1]": {"tested_on": "firefly luciferase-luciferin reaction", "experiment": "light production and light duration in vitro (test tube mixture, photos analysed by Image J)", "format": "biochemical", "details": "for light duration extended by: PLGA-LH2 1 mM, CS-CoA 625 μM"}}, "data": [{"molecule": "Nc1ncnc2c1ncn2C1OC(COP(=O)(O)OC(=O)c2csc(-c3nc4ccc(O)cc4s3)n2)C(O)C1O", "note": "(centres unmarked) [dehydroluciferyl-adenylate]", "values": [{"measurement": "IC50", "setting": "firefly luciferase", "result": 5, "unit": "nM"}]}, {"molecule": "SNP-Luc: firefly luciferase immobilized on 7 nm GPTS-PEG amine silica nanoparticles", "values": [{"measurement": "initial number of photons, times higher", "setting": "living watercress plant", "result": "4 to 7", "unit": "times"}, {"measurement": "light duration extended by", "setting": "[1]; 200 nM SNP-Luc", "result": 22, "unit": "h"}, {"measurement": "light duration extended by", "setting": "[1]; 4 μM SNP-Luc", "result": 6, "unit": "h"}, {"measurement": "light duration compared with free luciferase", "setting": "[1]; 1 mL mixture, 12 nM luciferase, 100 μM luciferin, 100 μM ATP", "result": "longer light duration than that of free luciferase"}]}]}
